Take `Cc1cc(C)c(C(=O)CCCCC(=O)O)c(O)c1C`: the melting point is 146 to 148 °C.

As for `Nc1cc(C(=O)O)ccc1C(F)(F)F`, the melting point was in the range of 175 to 177 °C.

For the molecule `NC(=O)Nc1ccc2c(=O)n(CCCCN3CC=C(c4ccccc4)CC3)c(=O)[nH]c2c1`, the melting point came out at 260 °C.

With `CCN(C(=O)n1occc1=O)c1ccc(Cl)cc1`, the melting point turned out to be 149 °C.

`c1nc(NCCN2CCOCC2)c2sc3nc(N4CCOCC4)c4c(c3c2n1)CCOC4` showed a melting point of 184 to 185 °C.

In the case of `CCOC(=O)C(NC(=O)c1ccccc1Cl)(c1nc(OC)cc(OC)n1)C(C)C` (stereo unspecified), the melting point was in the range of 94 to 95 °C.

The molecule `O=C(OCCN1CCOC1=O)c1ccccc1Nc1ccnc2c(C(F)(F)F)cccc12` gave a melting point of 158 to 160 °C.

The molecule `CN1C(=O)C(C)(C)N=C(c2ccccc2F)c2cc(N)ccc21` registered a melting point of 190 to 191 °C.

`O=C(O)CCCC(Nc1ccccc1)c1ccc(Cl)cc1` (stereo unspecified): the melting point lay in the range of 133 to 134 °C.

In turn, `CCOC(=O)Cc1sc(Sc2cc3ccccc3c(Cl)n2)nc1C` showed a melting point of 115 to 117 °C.

With `CCOC(=O)c1csc(-n2ccnc2)n1`, the melting point lay in the range of 107 to 109 °C.

With `O=C1c2ccccc2C(Nc2ccc(Cl)cc2)N1CCCN1CC=C(c2ccccc2)CC1` (stereo unspecified), the melting point was found to be 188 °C.

On to `CC(C(=O)OC1(C)CCCCC1)c1ccc(N)cc1` (stereo unspecified), for which the melting point lay within 85 to 87 °C.

With `O=C1c2c(Cl)cccc2-n2cncc2[C@@H]2CCN12`, the melting point was in the range of 207 to 208 °C.

Turning to `O=C(O)c1cccc(-c2cc([N+](=O)[O-])ccc2F)c1`, the melting point lay in the range of 272 to 274 °C.

`CSc1nc(N)c(N)c(N)n1` returned a melting point of 180 to 182 °C.

For the molecule `CCC[C@H]1CC[C@H](CCc2cc(F)c(C#N)c(F)c2)CC1`, the melting point amounted to 27.3 °C.

For `Cn1cc2c(C#CCO)cccc2n1`, the melting point was in the range of 139 to 140 °C.

On to `CCOC(=O)Cn1c2c(c3c(Cl)ccc(Cl)c31)CCN(C(=O)OC(C)(C)C)CC2`, for which the melting point fell in the range of 118 to 120 °C.

With `O=C(NCCO)c1cncc(-c2cccc3nn(Cc4cccc(C(F)(F)F)c4)cc23)c1`, the melting point lay in the range of 185 to 186 °C.

The molecule `NS(=O)(=O)c1ccc(-c2cc3cccccc-3c2-c2ccccc2)cc1` showed a melting point of 169 to 170 °C.

In turn, `CC(C)(C)NCC(O)COc1ccccc1C1=NNC(=O)CC1` (stereo unspecified) yielded a melting point of 138 to 141 °C.

`CCCCCSC1=C(SCCCCC)SC(=C2SC3=C(CN(S(=O)(=O)c4ccc(C)cc4)C3)S2)S1` gave a melting point of 136 to 137 °C.

As to `O=C1c2cc(Cl)ccc2N(N2CCOCC2)C2=NCCN12`, the melting point lay in the range of 238 to 239 °C.

On to `O=C(O)c1ccc(OC(=O)c2ccc(O)c(C34CC5CC(CC(C5)C3)C4)c2)cc1`, for which the melting point fell in the range of 269 to 271 °C.

As to `CCOC(=O)c1cc2c(C)ccc(N(C)S(=O)(=O)c3cccnc3Cl)c2[nH]1`, the melting point was 158 to 159 °C.

Molecule `Oc1ccc(Br)cc1-c1ccc2nonc2c1` had a melting point of 179 to 181 °C.

The molecule `CN1C(=O)N2CCSC2(c2ccccc2)C1=O` (stereo unspecified) came in with a melting point of 100 to 102 °C.

Consider `CCCN(CCC)C(=O)Cn1c(=O)[nH]c2cnc(-c3ccccc3)nc21`, for which the melting point fell in the range of 190 to 191 °C.

As to `CCOC(=O)NCCCCc1ccccc1`, the melting point lay within 60 to 61 °C.

In the case of `COC(=O)c1ccc(Oc2cc3c(cc2Br)C(C)(C)CCC3(C)C)cc1`, the melting point was in the range of 135 to 136 °C.

In turn, `COc1ccc(-c2cccc(-c3nc(C(C)C)[nH]c3-c3cccc(C)n3)c2)cn1` showed a melting point of 72 to 74 °C.

Molecule `O=[N+]([O-])c1ccc(Oc2ccc(Oc3ccc([N+](=O)[O-])cc3)c(P(=O)(c3ccccc3)c3ccccc3)c2)cc1` registered a melting point of 239 to 242 °C.

As for `COCOc1ccc(O)c(CC#N)c1`, the melting point fell in the range of 68 to 69 °C.

In turn, `CCCC1(Br)Cc2c3c(c(C)c(C)c2C1=O)OC(C(=O)O)C3` (stereo unspecified) showed a melting point of 78 °C.

`O=C(c1cccs1)c1cnn2c(-c3cccc(NC(=O)C4CCCCC4)c3)ccnc12` registered a melting point of 239 to 240 °C.

Values taken from a melting point compilation (Tetko et al.; mined from patent text by program, amines drawn as free bases though some values may be those of a salt).
